Structures are written as SMILES.

1 molecule from patent US20160279076A1, “METHODS FOR IMPROVEMENT OF VISUAL FUNCTION AND COMPOSITIONS USED THEREIN” (priority 2015, published 2016) can be followed below.

The test system of the assay is ARPE-19 cells. The experiment in a line: Gene expression analysis in ARPE-19 cells after lutein pretreatment and UV exposure. Format: cell-based, human. The conditions noted are these: for Down-regulated genes expression / Up-regulated genes expression: 10 μM lutein 24 hour pretreatment. How it is done:
Retinal pigment epithelial (RPE) cells play a key protective role by shielding retina from damaging UV rays and are used as a model to study the effect of macular carotenoids. In this study, a human RPE cell line (ARPE-19 cells were acquired from American Type Culture Collection (ATCC)) was either treated with placebo or treated with macular carotenoids alone or in combination for 24 hours prior to UV exposure. Cells were maintained for another 18 hours, then harvested for gene expressions. In another study, acetylcholinesterase and catalase activities in the presence of macular carotenoids were tested.
According to Study 1, Cell line ARPE-19 was subjected to 24 hour pretreatment with 10 μM lutein, followed by exposure to UV radiation of 1 J/m^2 for 7 seconds.
According to Study 2, Cell line ARPE-19 was subjected to 24 hour pretreatment with 10 μM lutein, followed by exposure to UV radiation of 300 J/m^2 for 10 minutes.
Gene expression analysis was carried out in response to UV exposure and macular carotenoid administration.

As for `CC1=C[C@H](O)CC(C)(C)[C@H]1/C=C/C(C)=C/C=C/C(C)=C/C=C/C=C(C)/C=C/C=C(C)/C=C/C1=C(C)C[C@@H](O)CC1(C)C` [Lutein, lutein], for the setting “with UV exposure”, the Down-regulated genes expression entry is given as “inhibits inflammation”; the Up-regulated genes expression entry is “inhibits oncogenesis and growth factor tumor suppressors”. In addition, for the setting “without UV exposure”, the Down-regulated genes expression result was “inhibits DNA damage and inflammation”; the Up-regulated genes expression entry was “inhibits oncogenesis and inflammation”. Besides, the “Gene expression analysis, overall role for vision health” value (ARPE-19 cells, UV irradiation) is “plays a protective role for vision health”.
